Results on 1 molecule are retold here after patent US20190018003A1, “TUMOR DISCRIMINATION METHOD, DIAGNOSTIC AGENT FOR TUMOR, AND SENSITIZER FOR TUMOR DIAGNOSIS” (TOTO LTD., priority 2017, published 2019).

Each structure is given as a SMILES string.

Format in all cases: cell-based, human
The test system of assay [1] is T24 urinary bladder cancer cells. Nature of the assay: Co-culture in the same visual field, fluorescence of T24 cell region. The settings on record: Example 11, T24 cell line, ALA 2 mmol/l, particles 0.001 w/v %. The text has this:
(§1) Co-culture pertaining to the present example for having the tumor cells and the immortalized normal cells exist in the same visual field will be described with reference to FIGS. 1A and 1B. For the co-culture, there was used CytoSelect™ 24-Well Cell Co-Culture System (manufactured by COSMO BIO). The T24 cell line was subcultured in an MEM medium (MEM, GlutaMAX™ supplement (Thermo Fisher Scientific), 10 v/v % FBS (Thermo Fisher Scientific)). The cultured cells which reached a logarithmic growth phase 3 days or 4 days later were peeled off with Trypsin/EDTA (Thermo Fisher Scientific) and, after the reaction was terminated in an MEM medium, centrifuged. The cell pellet obtained was suspended in an MEM medium. The cell suspension was subjected to measurement of cell density and inoculated onto a well at a density of 4.4×10^4 cells/0.225 ml/well, the well having an insert 2 of an 8 mm diameter disposed for preparing a cell-free region therein, and cultured for 2 days to form a monolayer in region 3 around the insert 2.
(§2) WI-38 cells were subcultured in an MEM medium. […]
(§3) Detection of fluorescence was performed in the same manner as in Example 4 by using an inverted fluorescence microscope (ECLIPSE Ti-E, Nikon). Images having a visual field of 3300 μm (width)×2200 μm (length) were obtained, and relative fluorescence intensities were calculated in the same manner as in Example 5.

The test system of assay [2] is WI-38 immortalized normal cells. Briefly: Co-culture in the same visual field, fluorescence of WI-38 cell region. The settings on record: Example 11, WI-38 cell line, ALA 2 mmol/l, particles 0.001 w/v %.
Source text: as §1, §2, §3

Assay [3] concerns UM-UC-3 urinary bladder cancer cells. Briefly: Fluorescence enhancement in UM-UC-3 cells by separate administration of fluorescent dye (ALA) and particles, fluorescence microscope. The settings on record: Example 5, ALA 2 mmol/l, particles 0.001 w/v %, immediately after observation light irradiation. As for the experimental part:
UM-UC-3 cells (UMUC3, ATCC CRL-1749) were prepared. This cell line was subcultured in an E-MEM medium (ATCC-formulated Eagle's Minimum Essential Medium (ATCC), 10 v/v % FBS (Life Technologies)). The cultured cells which reached a logarithmic growth phase 3 days or 4 days later were peeled off with Trypsin/EDTA (Thermo Fisher Scientific) and, after the reaction was terminated in an E-MEM medium, centrifuged. The cell pellet obtained was suspended in an E-MEM medium. The cell suspension was subjected to measurement of cell density, inoculated onto a 6-well plate at a density of 3.6×10^4 cells/2 ml/well, and cultured for 3 days. […]
Evaluation was performed as follows. The medium of the UM-UC-3 cells on a 6-well plate, obtained in Example 3, was removed by an aspirator, and evaluation thereof was performed under conditions where PBS (−) and HBSS (−) in Example 4 were changed to the E-MEM medium and the MEM medium (no glutamine and no phenol red (Thermo Fisher Scientific), respectively, and the solution was used for detection of fluorescence.
Detection of fluorescence was performed in the same manner as in Example 4 by using an inverted fluorescence microscope (ECLIPSE Ti-E, Nikon). A fluorescence intensity was calculated by subtracting luminance corresponding to dark noise from the image acquired and thereafter obtaining average luminance of all pixels where fluorescence was acquired. […]

The subject of a further assay is DLD-1 colon cancer cells. Nature of the assay: Fluorescence enhancement in DLD-1 cells by separate administration of fluorescent dye (ALA) and particles, fluorescence microscope. The settings on record: Example 6, ALA 2 mmol/l, particles 0.001 w/v %, immediately after observation light irradiation. As for the experimental part:
DLD-1 cells (DLD-1, JCRB9094) were prepared. This cell line was subcultured in an RPMI-1640 medium (RPMI-1640 medium (Life Technologies), 10 v/v % FBS (Life Technologies)). The cultured cells which reached a logarithmic growth phase 3 days or 4 days later were peeled off with Trypsin/EDTA (Thermo Fisher Scientific) and, after the reaction was terminated in an RPMI-1640 medium, centrifuged. The cell pellet obtained was suspended in an RPMI-1640 medium. The cell suspension was subjected to measurement of cell density, inoculated onto a 6-well plate at a density of 2.9×10^5 cells/2 ml/well, and cultured for 1 day.
An aqueous ALA solution (50 mmol/l) was mixed into an RPMI-1640 medium (Life Technologies) to form a 2 mmol/l ALA solution. […]
Evaluation was performed as follows. The medium of the DLD-1 cells on a 6-well plate, obtained in Example 3, was removed by an aspirator, and evaluation thereof was performed under conditions where PBS (−) and HBSS (−) in Example 4 were changed to RPMI-1640 medium and RPMI-1640 medium (no glutamine and no phenol red (Thermo Fisher Scientific), respectively, and the solution was used for detection of fluorescence.
Detection of fluorescence was performed in the same manner as in Example 5 by using an inverted fluorescence microscope and, from the acquired images, fluorescence intensities were obtained and relative fluorescence intensities were calculated.

`NCC(=O)CCC(=O)O` [fluorescent dye, 5-aminolevulinic acid]: the Relative fluorescence intensity was found to be 1.6 in assay [1], 1.0 in assay [2], 1.0 in assay [3] and 1.0 in the assay on DLD-1 colon cancer cells.
